Assay [1] concerns damping-off fungus (Rhizoctonia solani). Nature of the assay: Test Example 14: corn seed treatment, pot test in soil mixed with damping-off fungus, control value. The class given is in vivo. As to conditions: corn seeds, 20 days after. As to the method: In a rotary seed treatment machine (trade name: HEGE11, manufactured by […]), corn seeds (variety: yellow dent corn) were treated by smearing treatment using a flowable formulation of the present bacterial strain as obtained in Formulation Example 19, metconazole flowable formulation (40.0% flowable formulation, trade name: Metolock Fungicide, Valent U.S.A. Corporation), a chemical liquid prepared by dissolving tebuconazole in acetone/Tween 20 (weight ratio=95:5) and diluting with water, a chemical liquid prepared by dissolving prothioconazole in acetone/Tween 20 (weight ratio=95:5) and diluting with water, a chemical liquid prepared by dissolving difenoconazole in acetone/Tween 20 (weight ratio=95:5) and diluting with water, a chemical liquid prepared by dissolving triticonazole in acetone/Tween 20 (weight ratio=95:5) and diluting with water, a chemical liquid prepared by dissolving triadimenol in acetone/Tween 20 (weight ratio=95:5) and diluting with water, a chemical liquid prepared by dissolving bromconazole in acetone/Tween 20 (weight ratio=95:5) and diluting with water, so that the soybean seeds retain the present bacterial strain and the compound in the amount shown in Table 4.
Cultivation was carried out in a greenhouse under irrigation (“treated compartment”). The plants were investigated 20 days after for the number of diseased plants, and the disease incidence was calculated by the following “Equation 1”. […] The plants were investigated 20 days after for the number of diseased plants, and the disease incidence was calculated by the following “Equation 1”. The control value of the treated compartment was calculated by the following equation “Equation 2”, based on the disease incidences of the treated compartment and the untreated compartment.
Disease incidence (%)=100×(number of diseased plant/total number of seeded seeds) Equation 1
Control value (%)=100×[(disease incidence in untreated compartment−disease incidence in treated compartment)/disease incidence in untreated compartment] Equation 2 […]

For assay [2] the test system is unchanged. Briefly: Test Example 15: soybean seed treatment, pot test in soil mixed with damping-off fungus, control value. As to conditions: soybean seeds, 20 days after. Type of assay: in vivo. As to the method: In a rotary seed treatment machine (trade name: HEGE11, manufactured by WINTERSTEIGER), soybean seeds (variety: “Hatayutaka”) were treated by smearing treatment using the flowable formulation of the present bacterial strain obtained in Formulation Example 19 and a chemical liquid wherein ipconazole was dissolved in acetone/Tween 20 (weight ratio=95:5) and diluted with water, so that the soybean seeds retain the present bacterial strain and the compound in the amount shown in Table 5.
Cultivation was carried out in a greenhouse under irrigation (“treated compartment”). The plants were investigated 20 days after for the number of diseased plants, and the disease incidence was calculated by the following “Equation 1”. Also, similar procedures were conducted using untreated soybean seeds, instead of the treated soybean seeds, as described above for the treated compartment (“untreated compartment”). The plants were investigated 20 days after for the number of diseased plants, and the disease incidence was calculated by the following “Equation 1”. The control value of the treated compartment was calculated by the following equation “Equation 2”, based on the disease incidences of the treated compartment and the untreated compartment.
Disease incidence (%)=100×(number of diseased plant/total number of seeded seeds) Equation 1 […]

Where [3] appears, read: compound alone 0.005 g/Kg seeds.

In the case of `CC1COC(Cn2cncn2)(c2ccc(Oc3ccc(Cl)cc3)cc2Cl)O1` (stereo not shown) [Difenoconazole], the “Controlling Effect (control value)” value in assay [1] (compound alone 0.0025 g/Kg seeds) was found to be 33%; in assay [1] (setting [3]), 58%.
Take `OC(Cc1ccccc1Cl)(Cn1nc[nH]c1=S)C1(Cl)CC1` (stereo not shown) [Prothioconazole]: the figures for the “Controlling Effect (control value)” value in assay [1] (setting [3]) and in assay [1] (compound alone 0.01 g/Kg seeds) were 42% and 50%, respectively.
Turning to `CC(C)C1CCC(Cc2ccc(Cl)cc2)C1(O)Cn1cncn1` (stereo not shown) [Ipconazole], the “Controlling Effect (control value)” value in assay [2] (setting [3]) was determined as 27%; in assay [2] (compound alone 0.01 g/Kg seeds) it was 33%.
On to `CC(C)(C)C(O)C(Oc1ccc(Cl)cc1)n1cncn1` (stereo not shown) [Triadimenol], for which the “Controlling Effect (control value)” value in assay [1] (setting [3]) is 33%; in assay [1] (compound alone 0.01 g/Kg seeds), 42%.
Turning to `CC(C)(C)C(O)(CCc1ccc(Cl)cc1)Cn1cncn1` (stereo not shown) [Tebuconazole], the results for the “Controlling Effect (control value)” value in assay [1] (compound alone 0.01 g/Kg seeds) and in assay [1] (compound alone 0.02 g/Kg seeds) were 25% and 33%, respectively.
With `Clc1ccc(C2(Cn3cncn3)CC(Br)CO2)c(Cl)c1` (stereo not shown) [Bromconazole], the figures for the “Controlling Effect (control value)” value in assay [1] (setting [3]) and in assay [1] (compound alone 0.01 g/Kg seeds) were 17% and 33%, respectively.
In the same order, the values of `CC1(C)CCC(=Cc2ccc(Cl)cc2)C1(O)Cn1cncn1` (stereo not shown) [Triticonazole] are 17% and 25%.
Consider `CC1(C)CCC(Cc2ccc(Cl)cc2)C1(O)Cn1cncn1` (stereo not shown) [Metconazole], for which the “Controlling Effect (control value)” value is 25% in assay [1] (compound alone 0.0005 g/Kg seeds) and 33% in assay [1] (compound alone 0.001 g/Kg seeds).

Source of the values: patent US20180213796A1, “PLANT DISEASE CONTROL COMPOSITION AND PLANT DISEASE CONTROL METHOD” (SUMITOMO CHEMICAL COMPANY, LIMITED, priority 2015, published 2018).
